Laboratory results published in US4468511A, “C-20- And C-23-Modified macrolide derivatives” (Eli Lilly and Company, priority 1983, dated 1984).
Values after ≈ are worked out from the molar mass of the structure shown. Like-named read-outs stand apart in the source and are kept apart here.

Experiments:
[1] = test system: Streptococcus pyogenes 9960; experiment: MIC, standard agar-dilution assay; format: cell-based; conditions: 9960
Description: (§1) Certain of the derivatives are active against some gram-negative bacteria, such as Pasteurella species. The MIC's in Table II were determined by standard agar-dilution assays. The MIC's in Table III were obtained using a conventional broth-dilution microtiter test.

[2] = test system: Streptococcus pyogenes C203; experiment: MIC, standard agar-dilution assay; format: cell-based; conditions: agar-dilution; Streptococcus pyogenes C203; read-out: MIC
Description: as §1

[3] = test system: Streptococcus pneumoniae Park I; experiment: MIC, standard agar-dilution assay; format: cell-based; conditions: Streptococcus pneumoniae
Description: as §1

Escherichia coli TEM = experiment: MIC, standard agar-dilution assay; format: cell-based; conditions: agar-dilution; Escherichia coli TEM; read-out: MIC
Outline: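 Antibacterial activity toward the gram-negative organism Escherichia coli was assessed by conventional agar dilution. The MIC, reported in ug/mL, is the minimum compound concentration on agar that prevents growth.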

[4] = test system: Klebsiella pneumoniae X26; experiment: MIC, standard agar-dilution assay; format: cell-based; conditions: agar-dilution; Klebsiella pneumoniae X26; read-out: MIC
Outline: (§2)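 Agar plates containing graded compound levels gave the Klebsiella value. Graded broth dilutions in microtiter plates gave the Pasteurella and Mycoplasma values.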

[5] = test system: Staphylococcus aureus V41; experiment: MIC, standard agar-dilution assay; format: cell-based; conditions: Staphylococcus aureus, V41
Description: as §1

[6] = test system: Klebsiella pneumoniae KAE; experiment: MIC, standard agar-dilution assay; format: cell-based; conditions: agar-dilution; Klebsiella pneumoniae KAE; read-out: MIC
Outline: (§3)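 Broth microdilution MICs cover P. hemolytica, P. multocida and M. gallisepticum. The agar-dilution MIC covers K. pneumoniae only.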

[7] = test system: Streptococcus Group D X66; experiment: MIC, standard agar-dilution assay; format: cell-based
Description: as §1

[8] = test system: Staphylococcus aureus X1.1; experiment: MIC, standard agar-dilution assay; format: cell-based; conditions: agar-dilution; Staphylococcus aureus X1.1; read-out: MIC
Outline: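 A standard agar-dilution assay was used to test compounds against the Staphylococcus aureus isolate X1.1. Bacterial growth on agar with different compound concentrations was assessed, and the minimum inhibitory concentration was recorded in ug/mL.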

Escherichia coli EC14 = experiment: MIC, standard agar-dilution assay; format: cell-based; conditions: agar-dilution; Escherichia coli EC14; read-out: MIC
Description: as §1

[9] = test system: Staphylococcus aureus S13E; experiment: microbe, parasite or virus in culture; format: cell-based
Description: (§4) The MIC's in Table II were determined by standard agar-dilution assays. The MIC's in Table III were obtained using a conventional broth-dilution microtiter test.

[10] = test system: Staphylococcus epidermidis EPI1; experiment: microbe, parasite or virus in culture; format: cell-based; conditions: agar-dilution; Staphylococcus epidermidis EPI1; read-out: MIC
Description: as §4

[11] = test system: Staphylococcus epidermidis EPI2; experiment: MIC, standard agar-dilution assay; format: cell-based; conditions: agar-dilution; Staphylococcus epidermidis EPI2; read-out: MIC
Description: as §4

[12] = test system: Haemophilus influenzae C.L.; experiment: MIC, standard agar-dilution assay; format: cell-based; conditions: agar-dilution; Haemophilus influenzae C.L., Ampicillin-sensitive strain; read-out: MIC
Description: as §4

[13] = test system: Staphylococcus aureus X400; experiment: MIC, standard agar-dilution assay; format: cell-based; conditions: agar-dilution; Staphylococcus aureus X400, Methicillin-resistant strain; read-out: MIC
Description: as §4

[14] = test system: Haemophilus influenzae 76; experiment: MIC, standard agar-dilution assay; format: cell-based; conditions: Haemophilus influenzae, 76
Description: as §4

[15] = test system: Streptococcus pyogenes C203; experiment: Protection of mice experimentally infected with S. pyogenes C203; format: in vivo; conditions: mg/kg × 2, doses given 1 and 4 hours postinfection
Description: Some of the derivatives of this invention have shown in vivo antimicrobial activity against experimentally-induced infections in laboratory animals. When two doses of test compound were administered to mice experimentally infected with S. pyogenes C203, the activity observed was measured as an ED50 value [effective dose in mg/kg to protect 50% of the test animals: see Warren Wick, et al., J. Bacteriol. 81, 233-235 (1961)].

[16] = test system: Pasteurella hemolytica 22C; experiment: MIC, conventional broth-dilution microtiter test; format: cell-based; conditions: broth-dilution microtiter; Pasteurella hemolytica 22C; read-out: MIC
Outline: as §3

[17] = test system: Mycoplasma gallisepticum 34159; experiment: MIC, conventional broth-dilution microtiter test; format: cell-based; conditions: Mycoplasmoides gallisepticum; broth-dilution microtiter; Mycoplasma gallisepticum 34159, Resistant strain; read-out: MIC
Outline: as §3

Mycoplasma synoviae = experiment: MIC, conventional broth-dilution microtiter test; format: cell-based; conditions: Mycoplasmopsis synoviae; broth-dilution microtiter; Mycoplasma synoviae; read-out: MIC
Outline: as §2

[18] = test system: Mycoplasma gallisepticum 41313; experiment: MIC, conventional broth-dilution microtiter test; format: cell-based; conditions: Mycoplasmoides gallisepticum; broth-dilution microtiter; Mycoplasma gallisepticum 41313, Resistant strain; read-out: MIC
Outline: as §3

[19] = test system: Pasteurella hemolytica 23C; experiment: MIC, conventional broth-dilution microtiter test; format: cell-based; conditions: broth-dilution microtiter; Pasteurella hemolytica 23C; read-out: MIC
Outline: as §3

[20] = test system: Pasteurella hemolytica 41D; experiment: MIC, conventional broth-dilution microtiter test; format: cell-based; conditions: broth-dilution microtiter; Pasteurella hemolytica 41D; read-out: MIC
Outline: as §3

Mycoplasma gallisepticum = experiment: MIC, conventional broth-dilution microtiter test; format: cell-based; conditions: Mycoplasmoides gallisepticum; broth-dilution microtiter; Mycoplasma gallisepticum; read-out: MIC
Outline: as §3

[21] = test system: Pasteurella multocida 40G; experiment: MIC, conventional broth-dilution microtiter test; format: cell-based; conditions: broth-dilution microtiter; Pasteurella multocida 40G; read-out: MIC
Outline: as §3

[22] = test system: Pasteurella multocida 60A; experiment: MIC, conventional broth-dilution microtiter test; format: cell-based; conditions: broth-dilution microtiter; Pasteurella multocida 60A, Avian isolate; read-out: MIC
Outline: as §3

Staphylococcus aureus = experiment: MIC, conventional broth-dilution microtiter test; format: cell-based; conditions: broth-dilution microtiter, read-out: MIC
Description: as §1

[23] = test system: Pasteurella multocida 22A; experiment: MIC, conventional broth-dilution microtiter test; format: cell-based; conditions: broth-dilution microtiter; Pasteurella multocida 22A; read-out: MIC
Outline: as §3

Mycoplasma hyorhinis = experiment: MIC, conventional broth-dilution microtiter test; format: cell-based; conditions: broth-dilution microtiter; Mycoplasma hyorhinis; read-out: MIC
Outline: as §2

[24] = test system: Pasteurella multocida 68C; experiment: MIC, conventional broth-dilution microtiter test; format: cell-based; conditions: broth-dilution microtiter; Pasteurella multocida 68C; read-out: MIC
Outline: as §3

[25] = test system: Pasteurella multocida 17E; experiment: MIC, conventional broth-dilution microtiter test; format: cell-based; conditions: broth-dilution microtiter; Pasteurella multocida 17E, Bovine isolate; read-out: MIC
Outline: as §3

Streptococcus sp. 80 = experiment: MIC, conventional broth-dilution microtiter test; format: cell-based; conditions: broth-dilution microtiter; Streptococcus sp. 80; read-out: MIC
Description: as §1

CCC1OC(=O)CC(O)C(C)C(OC2OC(C)C(OC3CC(C)(O)C(O)C(C)O3)C(N(C)C)C2O)C(CCNCCc2ccccc2)CC(C)C(=O)C=CC(C)=CC1CO (stereo not drawn) [Compound 16]
MIC [1]: 32 mg/L (≈ 37.8 µM) | MIC [2]: 8 mg/L (≈ 9.44 µM) | MIC [3]: 4 mg/L (≈ 4.72 µM) | MIC (Escherichia coli TEM): > 128 mg/L | MIC [4]: 128 mg/L (≈ 151 µM) | MIC [5]: 32 mg/L (≈ 37.8 µM) | MIC [6]: > 128 mg/L | MIC [7]: 32 mg/L (≈ 37.8 µM) | MIC [8]: 16 mg/L (≈ 18.9 µM) | MIC (Escherichia coli EC14): > 128 mg/L | MIC [9]: 32 mg/L (≈ 37.8 µM) | MIC [10]: 16 mg/L (≈ 18.9 µM) | MIC [11]: 64 mg/L (≈ 75.6 µM) | MIC [12]: 64 mg/L (≈ 75.6 µM) | MIC [13]: 64 mg/L (≈ 75.6 µM) | MIC [14]: 16 mg/L (≈ 18.9 µM) | ED50 ([15]; C203, mice, oral, read-out: ED50 Oral): 88 mg/kg | ED50 ([15]; C203, sc, mice, subcutaneous, read-out: ED50 Subcutaneous): 10.4 mg/kg | MIC [16]: > 50 mg/L | MIC [17]: > 50 mg/L | MIC (Mycoplasma synoviae): 6.25 mg/L (≈ 7.38 µM) | MIC [18]: > 50 mg/L | MIC [19]: > 50 mg/L | MIC [20]: > 50 mg/L | MIC (Mycoplasma gallisepticum): 6.25 mg/L (≈ 7.38 µM) | MIC [21]: 50 mg/L (≈ 59 µM) | MIC [22]: > 50 mg/L | MIC (Staphylococcus aureus): 12.5 mg/L (≈ 14.8 µM) | MIC [23]: > 50 mg/L | MIC (Mycoplasma hyorhinis): > 50 mg/L | MIC [24]: > 50 mg/L | MIC [25]: > 50 mg/L | MIC (Streptococcus sp. 80): 12.5 mg/L (≈ 14.8 µM)
